Data from patent US7153993B2, “Process for making polymorphic form A of 4-[6-acetyl-3-[3-(4-acetyl-3-hydroxy-2-propylphenylthio)propoxy]-2-propylphenoxy]butyric acid” (Medicinova, Inc., priority 2003, dated 2006).
In brackets after ≈: the same amount, converted by molar mass.

Columns and labels:
[1] = Oral activity for treatment of asthma and allergic diseases; type: in vivo
[2] = Solubility of crystalline polymorphs in ether; type: physicochemical
From the text: After re-crystallization with individual solvents, compound (1) was subjected to powder X-ray diffractometry, thermal analysis and determination of solubility in ether; thus an exploratory evaluation of the crystalline polymorphism was made.

[3] = Solubility of compound (1) in ethanol/water (2:1); type: physicochemical; details: stirred one hour
Method: Samples of compound (1) (5 g) were suspended in ethanol/water (2:1, 100 mL) and stirred for one hour at temperatures of 22° C., 30° C., and 40° C., respectively. The suspensions were filtered and the solids dried in a vacuum oven at room temperature overnight to give the insoluble material. The solubilities were calculated by subtractive means based on recovered material.

## CCCc1c(SCCCOc2ccc(C(C)=O)c(OCCCC(=O)O)c2CCC)ccc(C(C)=O)c1O [Compound (1), 4-[6-acetyl-3-[3-(4-acetyl-3-hydroxy-2-propylphenylthio)propoxy]-2-propylphenoxy]butyric acid]
[1]
  oral activity for treatment of asthma and allergic diseases: orally active

## CCCc1c(SCCCOc2ccc(C(C)=O)c(OCCCC(=O)O)c2CCC)ccc(C(C)=O)c1O [Form I, 4-[6-acetyl-3-[3-(4-acetyl-3-hydroxy-2-propylphenylthio)propoxy]-2-propylphenoxy]butyric acid]
[2]; ether, listed as I
  Solubility in ether: 36.7 mg/mL (≈ 69.2 mM)

## CCCc1c(SCCCOc2ccc(C(C)=O)c(OCCCC(=O)O)c2CCC)ccc(C(C)=O)c1O [Form II, 4-[6-acetyl-3-[3-(4-acetyl-3-hydroxy-2-propylphenylthio)propoxy]-2-propylphenoxy]butyric acid]
[2]; ether, organic solvent or mixture
  solubility: 40.5 mg/mL (≈ 76.3 mM)

## CCCc1c(SCCCOc2ccc(C(C)=O)c(OCCCC(=O)O)c2CCC)ccc(C(C)=O)c1O [Form III, 4-[6-acetyl-3-[3-(4-acetyl-3-hydroxy-2-propylphenylthio)propoxy]-2-propylphenoxy]butyric acid]
[2]; ether, listed as III
  Solubility in ether: 35.3 mg/mL (≈ 66.5 mM)

## CCCc1c(SCCCOc2ccc(C(C)=O)c(OCCCC(=O)O)c2CCC)ccc(C(C)=O)c1O [Form IV, 4-[6-acetyl-3-[3-(4-acetyl-3-hydroxy-2-propylphenylthio)propoxy]-2-propylphenoxy]butyric acid]
[2]; ether, listed as IV
  Solubility in ether: 45.8 mg/mL (≈ 86.3 mM)

## CCCc1c(SCCCOc2ccc(C(C)=O)c(OCCCC(=O)O)c2CCC)ccc(C(C)=O)c1O [Form V, 4-[6-acetyl-3-[3-(4-acetyl-3-hydroxy-2-propylphenylthio)propoxy]-2-propylphenoxy]butyric acid]
[2]; ether, listed as V
  Solubility in ether: 47.6 mg/mL (≈ 89.7 mM)
[2]; qualitative statement, solvent not stated
  solubility compared to the other polymorphs: superior to the other polymorphs
[3]; 30° C., listed as V (form A)
  Solubility in ethanol/water (2:1): 15.7 mg/mL (≈ 29.6 mM)
[3]; 40° C., listed as V (form A)
  Solubility in ethanol/water (2:1): 46 mg/mL (≈ 86.7 mM)
[3]; ethanol/water (2:1), 22 °C, organic solvent or mixture, thermodynamic from solid, 22° C.
  solubility at 1 h: 6.7 mg/mL (≈ 12.6 mM)

## CCCc1c(SCCCOc2ccc(C(C)=O)c(OCCCC(=O)O)c2CCC)ccc(C(C)=O)c1O [undesired monoclinic polymorph, 4-[6-acetyl-3-[3-(4-acetyl-3-hydroxy-2-propylphenylthio)propoxy]-2-propylphenoxy]butyric acid]
[3]; 22° C.
  Solubility in ethanol/water (2:1): 3.4 mg/mL (≈ 6.41 mM)
[3]; 30° C.
  Solubility in ethanol/water (2:1): 6.1 mg/mL (≈ 11.5 mM)
[3]; 40° C.
  Solubility in ethanol/water (2:1): 17.2 mg/mL (≈ 32.4 mM)
